PMC12203311, “Design, synthesis, in silico and in vitro evaluation of pyrrole–indole hybrids as dual tubulin and aromatase inhibitors with potent anticancer activities” (RSC Advances, 2025)

Assays:
K-562 = assay: NCI60 five-dose screen; type: cell-based; conditions: Homo sapiens, K562, K-562, leukemia; for CC50: read-out: LC50 (the source's name)
MOLT-4 = assay: NCI60 five-dose screen; type: cell-based; conditions: Homo sapiens, MOLT-4, leukemia
A549/ATCC = assay: NCI60 five-dose screen; type: cell-based; conditions: Homo sapiens, NSC lung cancer; for CC50: read-out: LC50 (the source's name)
EKVX = assay: NCI60 five-dose screen; type: cell-based; conditions: Homo sapiens, NSC lung cancer; for CC50: read-out: LC50 (the source's name)
NCI-H226 = assay: NCI60 five-dose screen; type: cell-based; conditions: Homo sapiens, NCI-H226, NSC lung cancer; for CC50: read-out: LC50 (the source's name)
NCI-H322M = assay: NCI60 five-dose screen; type: cell-based; conditions: Homo sapiens, NSC lung cancer; for CC50: read-out: LC50 (the source's name)
NCI-H460 = assay: NCI60 five-dose screen; type: cell-based; conditions: Homo sapiens, NCI-H460, NSC lung cancer; for CC50: read-out: LC50 (the source's name)
NCI-H522 = assay: NCI60 five-dose screen; type: cell-based; conditions: Homo sapiens, NCI-H522, NSC lung cancer; for CC50: read-out: LC50 (the source's name)
HCT-15 = assay: NCI60 five-dose screen; type: cell-based; conditions: Homo sapiens, HCT-15, colon cancer; for CC50: read-out: LC50 (the source's name)
KM12 = assay: NCI60 five-dose screen; type: cell-based; conditions: Homo sapiens, KM12, colon cancer; for CC50: read-out: LC50 (the source's name)
SW-620 = assay: NCI60 five-dose screen; type: cell-based; conditions: Homo sapiens, SW-620, colon cancer; for CC50: read-out: LC50 (the source's name)
SF-539 = assay: NCI60 five-dose screen; type: cell-based; conditions: Homo sapiens, SF-539, CNS cancer; for CC50: read-out: LC50 (the source's name)
SNB-19 = assay: NCI60 five-dose screen; type: cell-based; conditions: Homo sapiens, SNB-19, CNS cancer; for CC50: read-out: LC50 (the source's name)
MALME-3M = assay: NCI60 five-dose screen; type: cell-based; conditions: Homo sapiens, melanoma; for CC50: read-out: LC50 (the source's name)
M14 = assay: NCI60 five-dose screen; type: cell-based; conditions: Homo sapiens, M14, melanoma; for CC50: read-out: LC50 (the source's name)
MDA-MB-435 = assay: NCI60 five-dose screen; type: cell-based, human; conditions: Homo sapiens; for GI50: MDA-MB-435, melanoma
UACC-257 = assay: NCI60 five-dose screen; type: cell-based; conditions: Homo sapiens, UACC-257, melanoma; for CC50: read-out: LC50 (the source's name)
OVCAR-4 = assay: NCI60 five-dose screen; type: cell-based; conditions: Homo sapiens, OVCAR-4, ovarian cancer; for CC50: read-out: LC50 (the source's name)
OVCAR-8 = assay: NCI60 five-dose screen; type: cell-based; conditions: Homo sapiens, OVCAR-8, ovarian cancer; for CC50: read-out: LC50 (the source's name)
NCI/ADR-RES = assay: NCI60 five-dose screen; type: cell-based, human; conditions: Homo sapiens, ovarian cancer
SK-OV-3 = assay: NCI60 five-dose screen; type: cell-based; conditions: Homo sapiens, SK-OV-3, ovarian cancer; for CC50: read-out: LC50 (the source's name)
RXF 393 = assay: NCI60 five-dose screen; type: cell-based; conditions: Homo sapiens, RXF 393, renal cancer; for CC50: read-out: LC50 (the source's name)
DU-145 = assay: NCI60 five-dose screen; type: cell-based; conditions: Homo sapiens, DU-145, prostate cancer; for CC50: read-out: LC50 (the source's name)
MCF7 = assay: NCI60 five-dose screen; type: cell-based; conditions: Homo sapiens, MCF7, breast cancer; for CC50: read-out: LC50 (the source's name)
MDA-MB-231/ATCC = assay: NCI60 five-dose screen; type: cell-based; conditions: Homo sapiens, breast cancer; for CC50: read-out: LC50 (the source's name)
HS 578T = assay: NCI60 five-dose screen; type: cell-based; conditions: Homo sapiens, breast cancer; for CC50: read-out: LC50 (the source's name)
Human CYP19 (aromatase) = molecular target: T1, Human CYP19 (aromatase) (Homo sapiens, UniProt P11511); assay: Aromatase inhibition assay (DBF fluorometric substrate); type: biochemical; conditions: active defined as IC50 < 12.5 µM
T1 construct: purchased GENTEST, Woburn, MA 456260; host or cells: baculovirus/insect cells
T1 sequence (P11511 1-503): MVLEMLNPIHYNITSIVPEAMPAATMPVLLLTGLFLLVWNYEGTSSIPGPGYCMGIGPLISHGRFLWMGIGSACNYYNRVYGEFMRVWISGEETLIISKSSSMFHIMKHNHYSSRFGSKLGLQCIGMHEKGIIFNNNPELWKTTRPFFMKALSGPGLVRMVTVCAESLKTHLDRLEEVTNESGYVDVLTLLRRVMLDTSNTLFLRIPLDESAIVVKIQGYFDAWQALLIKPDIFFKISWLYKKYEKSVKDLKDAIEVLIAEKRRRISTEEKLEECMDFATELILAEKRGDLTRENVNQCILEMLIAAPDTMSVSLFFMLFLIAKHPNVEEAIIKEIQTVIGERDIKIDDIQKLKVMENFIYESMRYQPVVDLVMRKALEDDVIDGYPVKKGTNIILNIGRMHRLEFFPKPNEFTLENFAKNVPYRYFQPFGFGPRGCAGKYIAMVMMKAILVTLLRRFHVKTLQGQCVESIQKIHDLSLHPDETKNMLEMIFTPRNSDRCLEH
Outline: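 Insect-cell-expressed human CYP19 Supersomes with oxidoreductase turned over DBF for 30 min at 37 °C after a 10 min 37 °C pre-incubation with cofactor. NaOH quench; product measured by fluorescence, excitation 490 nm, emission 530 nm.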

[1] = read-out: LC50 (the source's name)

Q: How did the GI50 (K-562) turn out when `O=C(N/N=C/c1cc(Cl)c[nH]1)c1[nH]c2ccc(Br)cc2c1-c1ccccc1` [Derivative 3h, (E)-5-Bromo-N′-((4-chloro-1H-pyrrol-2-yl)methylene)-3-phenyl-1H-indole-2-carbohydrazide] was run?
A: The GI50 was 234 nM.

Q: And the CC50 (K-562)?
A: Its CC50 is 5.64 µM.

Q: What about the GI50 (MOLT-4) of the same compound?
A: The GI50 was 283 nM.

Q: What about the GI50 (A549/ATCC) of the same compound?
A: The GI50 was 430 nM.

Q: And the CC50 (A549/ATCC)?
A: Its CC50 is 47.4 µM.

Q: And the GI50 (EKVX)?
A: The GI50 was 1280 nM.

Q: And the CC50 (EKVX)?
A: The CC50 was > 100 µM.

Q: What about the GI50 (NCI-H226) of the same compound?
A: The GI50 was 604 nM.

Q: What about the CC50 (NCI-H226) of the same compound?
A: The CC50 was > 100 µM.

Q: What about the GI50 (NCI-H322M) of the same compound?
A: Its GI50 is 768 nM.

Q: What about the CC50 (NCI-H322M) of the same compound?
A: The CC50 was 92.3 µM.

Q: What about the GI50 (NCI-H460) of the same compound?
A: The GI50 was 281 nM.

Q: And the CC50 (NCI-H460)?
A: The CC50 was 9.24 µM.

Q: What about the GI50 (NCI-H522) of the same compound?
A: The GI50 was 211 nM.

Q: What about the CC50 (NCI-H522) of the same compound?
A: Its CC50 is > 100 µM.

Q: And the GI50 (HCT-15)?
A: Its GI50 is 302 nM.

Q: And the CC50 (HCT-15)?
A: Its CC50 is 21.9 µM.

Q: And the GI50 (KM12)?
A: Its GI50 is 328 nM.

Q: And the CC50 (KM12)?
A: The CC50 was 20.7 µM.

Q: And the GI50 (SW-620)?
A: The GI50 was 328 nM.

Q: What about the CC50 (SW-620) of the same compound?
A: The CC50 was 80.9 µM.

Q: What about the GI50 (SF-539) of the same compound?
A: Its GI50 is 231 nM.

Q: And the CC50 (SF-539)?
A: Its CC50 is 22.1 µM.

Q: What about the GI50 (SNB-19) of the same compound?
A: The GI50 was 638 nM.

Q: What about the CC50 (SNB-19) of the same compound?
A: Its CC50 is 61.9 µM.

Q: And the GI50 (MALME-3M)?
A: The GI50 was 645 nM.

Q: And the CC50 (MALME-3M)?
A: The CC50 was 46.1 µM.

Q: What about the GI50 (M14) of the same compound?
A: Its GI50 is 305 nM.

Q: What about the CC50 (M14) of the same compound?
A: The CC50 was 50.3 µM.

Q: And the GI50 (MDA-MB-435)?
A: The GI50 was 185 nM.

Q: What about the GI50 (UACC-257) of the same compound?
A: The GI50 was 856 nM.

Q: And the CC50 (UACC-257)?
A: Its CC50 is 58.8 µM.

Q: What about the GI50 (OVCAR-4) of the same compound?
A: Its GI50 is 555 nM.

Q: And the CC50 (OVCAR-4)?
A: Its CC50 is 34.1 µM.

Q: What about the GI50 (OVCAR-8) of the same compound?
A: The GI50 was 214 nM.

Q: What about the CC50 (OVCAR-8) of the same compound?
A: The CC50 was 0.988 µM.

Q: What about the GI50 (NCI/ADR-RES) of the same compound?
A: The GI50 was 200 nM.

Q: What about the GI50 (SK-OV-3) of the same compound?
A: Its GI50 is 519 nM.

Q: What about the CC50 (SK-OV-3) of the same compound?
A: Its CC50 is 45.4 µM.

Q: And the GI50 (RXF 393)?
A: The GI50 was 219 nM.

Q: And the CC50 (RXF 393)?
A: The CC50 was 34.3 µM.

Q: And the GI50 (DU-145)?
A: Its GI50 is 352 nM.

Q: What about the CC50 (DU-145) of the same compound?
A: Its CC50 is 27.2 µM.

Q: And the GI50 (MCF7)?
A: The GI50 was 309 nM.

Q: And the CC50 (MCF7)?
A: The CC50 was 53.5 µM.

Q: And the GI50 (MDA-MB-231/ATCC)?
A: Its GI50 is 296 nM.

Q: What about the CC50 (MDA-MB-231/ATCC) of the same compound?
A: Its CC50 is 26.9 µM.

Q: And the GI50 (HS 578T)?
A: Its GI50 is 284 nM.

Q: And the CC50 (HS 578T)?
A: The CC50 was > 100 µM.

Q: What about the IC50 (Human CYP19 (aromatase)) of the same compound?
A: The IC50 was 1800 ± 400 nM.

Q: Which results are given for `CCOC(=O)c1ccc(/C=N/NC(=O)c2[nH]c3ccc(Br)cc3c2-c2ccccc2)[nH]1` [Derivative 3i, Ethyl (E)-5-((2-(5-bromo-3-phenyl-1H-indole-2-carbonyl)hydrazono)methyl)-1H-pyrrole-2-carboxylate]?
A: GI50 (K-562): 1080 nM; CC50 (K-562): > 100 µM; GI50 (MOLT-4): 2490 nM; CC50 (MOLT-4; [1]): > 100 µM; GI50 (A549/ATCC): 3250 nM; CC50 (A549/ATCC): 79.4 µM; GI50 (EKVX): 4290 nM; CC50 (EKVX): > 100 µM; GI50 (NCI-H226): 3130 nM; CC50 (NCI-H226): 45.4 µM; GI50 (NCI-H322M): 3300 nM; CC50 (NCI-H322M): > 100 µM; GI50 (NCI-H460): 2800 nM; CC50 (NCI-H460): 41.4 µM; GI50 (NCI-H522): 460 nM; CC50 (NCI-H522): 82.2 µM; GI50 (HCT-15): 2480 nM; CC50 (HCT-15): 40.5 µM; GI50 (KM12): 2220 nM; CC50 (KM12): 38 µM; GI50 (SW-620): 3930 nM; CC50 (SW-620): 53.6 µM; GI50 (SF-539): 1600 nM; CC50 (SF-539): 26.2 µM; GI50 (SNB-19): 2980 nM; CC50 (SNB-19): 62.8 µM; GI50 (MALME-3M): 3830 nM; CC50 (MALME-3M): 54.8 µM; GI50 (M14): 2730 nM; CC50 (M14): 71.9 µM; CC50 (MDA-MB-435; MDA-MB-435, MDA-MB-435, melanoma, read-out: LC50 (the source's name)): 27.6 µM; GI50 (MDA-MB-435): 464 nM; GI50 (UACC-257): 2970 nM; CC50 (UACC-257): 87.4 µM; GI50 (OVCAR-4): 4260 nM; CC50 (OVCAR-4): > 100 µM; GI50 (OVCAR-8): 2490 nM; CC50 (OVCAR-8): 47.6 µM; GI50 (NCI/ADR-RES): 897 nM; CC50 (NCI/ADR-RES; [1]): 9.2 µM; GI50 (SK-OV-3): 4010 nM; CC50 (SK-OV-3): > 100 µM; GI50 (RXF 393): 1690 nM; CC50 (RXF 393): 66.4 µM; GI50 (DU-145): 3320 nM; CC50 (DU-145): 38.7 µM; GI50 (MCF7): 1540 nM; CC50 (MCF7): > 100 µM; GI50 (MDA-MB-231/ATCC): 2630 nM; CC50 (MDA-MB-231/ATCC): 33.2 µM; GI50 (HS 578T): 1210 nM; CC50 (HS 578T): > 100 µM; IC50 (Human CYP19 (aromatase)): 2600 ± 800 nM
